Experimental findings from patent US20240156898A1, “METHODS AND COMPOSITIONS FOR TREATING OCULAR DISORDERS AND DISEASES” (ONL Therapeutics, Inc., priority 2021, published 2024) are described below.

Residues, ends and D or L forms follow the SMILES beside them.

Data set [1] is described as follows: Ocular tissue concentration of ONL1204 after intravitreal injection in rabbit eye (LC-MS/MS). Particulars: 0.1 mg/eye.
Method: (§1) Body weights were measured and recorded prior to first dose, approximately weekly (for surviving animals through Week 12), and prior to euthanasia. […] Ophthalmic examinations were performed using the Hackett-McDonald Scoring System on Days 0, 7, 14, 28, 90, 97, 151, and 168. Pharmacokinetic analyses were performed on the vitreous humor concentration data.
(§2) Seven animals received a repeat IVT dose at 2 mg/mL (0.1 mg/eye) on Day 90.
(§3) Vitreous humor, retina, and choroid were collected on days 1, 7, 14, 28, 42, 61, 90, 97, 151, and 168. Eyes were enucleated, snap frozen using liquid nitrogen, and kept on dry ice or frozen at −80° C. until dissected for collection of aqueous humor, vitreous humor, retina, choroid, iris-ciliary body (ICB), and lens.
(§4) To homogenize ocular tissue samples, weighed amounts of control bovine vitreous humor, retina, and choroid were homogenized in USA scientific impact resistant microtubes containing 2.8 mm ceramic beads. Unknown rabbit vitreous humor, retina, and choroid samples were homogenized in USA scientific impact resistant microtubes containing 2.8 mm ceramic beads. Each vitreous humor sample was homogenized after the addition of 5000 microliters (uL) diluent (acetonitrile: water: 1 M hydrochloric acid (70:20:10, v/v/v). Retina tissues were homogenized after the addition of diluent (IPA:NH4OH (1000:1, v/v)) at a 1:5 ratio (parts tissue to parts diluent), and choroid samples were homogenized following addition of diluent at a 1:19 ratio. Tissues were homogenized at 5500 rpm for 3×30 second cycles with 20 second pauses between cycles until homogenized. Choroid went through two runs of homogenization, and retina and vitreous humor samples went through one run of homogenization.
(§5) Preparation of Standards, Unknowns, Blanks, and Blanks with Internal Standard for Vitreous Humor Analysis: • In a polypropylene tube, 10 uL of working calibration standard was added to 90 uL control blank vitreous humor. For blanks and blanks with internal standard, 100 uL of control blank bovine vitreous humor was added. Five hundred (500) uL of acetonitrile: water:1M hydrochloric acid (70:20:10, v/v/v) was added to each standard and 500 uL of acetonitrile: water:1M hydrochloric acid (70:20:10, v/v/v) was added to blanks. Standards and blanks were vortex mixed. One hundred (100) uL of each standard, blank or unknown vitreous humor sample homogenate was then aliquoted. One hundred (100) uL of IPA:NH4OH (1000:1, v/v) was added to each sample. The samples were vortex mixed for 1 minute, then centrifuged for 10 minutes at 4,000 rpm (4° C.). […] Fifty (50.0) uL of acetonitrile:water:1M hydrochloric acid (70:20:10, v/v/v) was added to blank without IS. Two hundred (200) uL of water was added. The samples were then mixed using a multichannel pipette, and supernatant transferred to an autosampler plate for analysis.
(§6) In a 96-well plate, 100 uL of control retina or choroid homogenate was added for calibration samples and unknowns. For blanks and blanks with internal standard, 100 uL of control bovine retina or choroid tissue homogenate was added. […] Twenty (20) uL acetonitrile:water:formic acid (25:75:0.1, v/v/v) was added to each blank without IS sample. Three-hundred (300) uL of IPA:NH4OH (1000:1, v/v) was added to each choroid or retina sample. The samples were then vortex mixed for 5 minutes. The samples were allowed to set for 15 minutes, vortex mixed for an additional minute, and centrifuged for 10 minutes at 4,000 rpm (4° C.).
(§7) Three-hundred-fifty (350) uL of each sample was then aliquoted to a 96-well plate. The samples were dried with nitrogen at 35° C.
In data set [2] the test system is retinal pigment epithelial cell death. In words: Sodium iodate (NaIO3) challenge study, duration of protection, fluorescein angiography lesion area. The settings on record: rabbit.
Method: NaIO3 solution: • Challenge Article: NaIO3 • Administration Route: IV • Frequency of Administration: Day 4 (day 7 endpoint), 14 (day 17 endpoint), 28 (day 31 endpoint), 59 (day 61 endpoint), or 78 (day 81 endpoint (rechallenged group)). • Solution: 20 mg/ml in 0.9% Injectable Saline • Dose: 17 or 18 mg/kg body weight
Test System: • Species: Rabbit • Expected Age: Animals were between 3 and 4 months of age • Expected Body Range: Approximately 2.0 Kg, Identification Animals were individually • housed and identified via cage card and ear ID and/or ear tattoo. • Experimental History: Purpose-bred and experimentally naïve at the onset of the study
Intravitreal Injection: • On Day 0, eyes were anesthetized with proparacaine and pupils dilated with tropicamide. Animals were anesthetized with isoflurane vapors to effect. A few drops of Betadine were placed on the eye and then rinsed with ophthalmic eye wash. A clean speculum was placed in the eye (rinsed in Betadine and sterile saline) and the temporal sclera was marked with calipers 3.5 mm from the corneal border. […] In order to reduce the potential for reflux of the test article the needle remained in the vitreous for at least 10 seconds following injection. No reflux was noted on the dosing record.
Model Induction: • A 20 mg/ml solution of NaIO3 was prepared in 0.9% injectable saline aliquoted into 4 batches and frozen at −20° C. For Groups 1-8, 1 batch of NaIO3 was thawed prior to injection. Groups 9-10 were added after the Study was underway therefore a new solution of 20 mg/ml NaIO3 was prepared in 0.9% injectable saline and frozen at −20° C. and thawed prior to injection. Test article and NaIO3 were injected into the left ear.
Animals were weighed and anesthetized with isoflurane vapors to effect. The left ear was shaved and swabbed with 10% alcohol prior to injection. An indwelling catheter was placed in the left marginal ear vein and flushed with 0.9% injectable saline. […]
Data Analysis: • The area of RPE depigmentation is reported as a unitless value provided by the ImageJ software. […] The resulting area was then measured.
For data set [3] the following is noted: minipig, in vivo.
Method: Seven animals received a repeat IVT dose at 2 mg/mL (0.1 mg/eye) on Day 90. […] Vitreous humor, retina, and choroid were collected on days 1, 7, 14, 28, and 88.
A further data set can be described thus: in vivo. The settings on record: rabbit.

Method for in vivo: as §1, §2, §3, §4, §5, §6, §7

`CC[C@H](C)[C@H](NC(=O)[C@H](Cc1ccc(O)cc1)NC(=O)[C@H](CC(N)=O)NC(=O)[C@@H](NC(=O)[C@H](C)NC(=O)CNC(=O)[C@H](CC(C)C)NC(=O)[C@H](Cc1ccc(O)cc1)NC(=O)[C@@H](NC(=O)[C@H](Cc1cnc[nH]1)NC(=O)[C@@H](N)Cc1cnc[nH]1)[C@@H](C)CC)C(C)C)C(=O)N[C@@H](Cc1ccc(O)cc1)C(N)=O` [ONL1204] (H-HHIYLGAVNYIY-NH2): in data set [1] (retina), the tissue level at time at 4032 h worked out at 8.4 ng/g. This compound also had a tissue level at time at 24 h in data set [1] (retina, Conc. of ONL1204 Retina, single IVT 0.1 mg/eye, Day 1, LLOQ 3.00 ng/g) of 12.7 ng/g. This compound also displayed a tissue level at time at 168 h in data set [1] (retina, Conc. of ONL1204 Retina, single IVT 0.1 mg/eye, Day 7, LLOQ 3.00 ng/g) of 85.2 ng/g. In data set [1] (retina, Conc. of ONL1204 Retina, single IVT 0.1 mg/eye, Day 14, LLOQ 3.00 ng/g), this compound gave a tissue level at time at 336 h of 5.95 ng/g. Further, the half-life was 279 days in data set [1] (vitreous humor, other: intravitreal injection) and 280 days in “in vivo”. Besides, the “lesion size vs negative controls and vs 25 ug” value in data set [2] (100 ug per eye IVT on Day 0, NaIO3 challenge Day 14) was “significantly smaller lesion size”. Also, the “lesion size vs negative control animals and vs 25 ug” value in data set [2] (100 ug per eye IVT on Day 0, NaIO3 challenge Day 28) is on record as “significantly smaller lesion size”. Moreover, in data set [2] (25 or 100 ug per eye IVT on Day 0, NaIO3 challenge Days 4 to 59), the “mean lesion size across challenge time points” value was “substantive reduction”. Moreover, the “detection in the vitreous humor across all time points analyzed” value in data set [3] was “detected in the vitreous humor across all time points analyzed”.
